Test system: 12 single or co-culture in vitro tissue models of primary cells
Assay: Culture/co-culture cell model panel, extracellular biomarkers (DiscoveRx); as to CCL2/MCP-1: reference of the scale not given here; as to CXCL8/IL-8: reference of the scale not given here; as to CXCL9/MIG: reference of the scale not given here; as to IL-1alpha: reference of the scale not given here; as to SRB: reference of the scale not given here
Assay type: cell-based, human

SMILES: Cc1n[nH]c2ncc(C(=O)N3CCC[C@H]3c3ccc(Cl)cc3)cc12 [CMPD4]
- tPA (BENo, 3.70E2 nM): -0.062
- uPA (BENo, 3.70E2 nM): -0.019
- CCL26/Eotaxin-3 (BENo, 4.12E1 nM): 0.012
- CD54/ICAM-1 (BENo, 4.12E1 nM): -0.077
- CD87/uPAR (BENo, 4.12E1 nM): -0.027
- CXCL8/IL-8 (BENo, 4.12E1 nM): 0.020
- CXCL9/MIG (BENo, 4.12E1 nM): -0.004
- CXCL10/IP-10 (BENo, 4.12E1 nM): -0.033
- CXCL11/I-TAC (BENo, 4.12E1 nM): -0.036
- EGFR (BENo, 4.12E1 nM): 0.00426
- HLA-DR (BENo, 4.12E1 nM): -0.016
- IL-1alpha (BENo, 4.12E1 nM): 0.010
- Keratin 8/18 (BENo, 4.12E1 nM): -0.010
- MMP-1 (BENo, 4.12E1 nM): -0.031
- MMP-9 (BENo, 4.12E1 nM): -0.003
- PAI-I (BENo, 4.12E1 nM): -0.067
- SRB (BENo, 4.12E1 nM): 0.00253
- tPA (BENo, 4.12E1 nM): -0.061
- uPA (BENo, 4.12E1 nM): -0.015
- CCL26/Eotaxin-3 (BENo, 4.57E0 nM): 0.029
- CD54/ICAM-1 (BENo, 4.57E0 nM): -0.040
- CD87/uPAR (BENo, 4.57E0 nM): 0.028
- CXCL8/IL-8 (BENo, 4.57E0 nM): 0.039
- CXCL9/MIG (BENo, 4.57E0 nM): 0.050
- CXCL10/IP-10 (BENo, 4.57E0 nM): 0.057
- CXCL11/I-TAC (BENo, 4.57E0 nM): -0.035
- EGFR (BENo, 4.57E0 nM): 0.015
- HLA-DR (BENo, 4.57E0 nM): 0.068
- IL-1alpha (BENo, 4.57E0 nM): -0.00546
- Keratin 8/18 (BENo, 4.57E0 nM): -0.020
- MMP-1 (BENo, 4.57E0 nM): -0.009
- MMP-9 (BENo, 4.57E0 nM): -0.020
- PAI-I (BENo, 4.57E0 nM): -0.00037
- SRB (BENo, 4.57E0 nM): 0.018
- tPA (BENo, 4.57E0 nM): 0.003
- uPA (BENo, 4.57E0 nM): -0.020
- CCL2/MCP-1 (BF4T, 1.00E4 nM): -0.010
- CCL26/Eotaxin-3 (BF4T, 1.00E4 nM): -0.144
- CD54/ICAM-1 (BF4T, 1.00E4 nM): -0.092
- CD90 (BF4T, 1.00E4 nM): -0.00366
- CD106/VCAM-1 (BF4T, 1.00E4 nM): -0.026
- CXCL8/IL-8 (BF4T, 1.00E4 nM): 0.017
- IL-1alpha (BF4T, 1.00E4 nM): -0.039
- Keratin 8/18 (BF4T, 1.00E4 nM): -0.020
- MMP-1 (BF4T, 1.00E4 nM): -0.016
- MMP-3 (BF4T, 1.00E4 nM): 0.014
- MMP-9 (BF4T, 1.00E4 nM): -0.031
- PAI-I (BF4T, 1.00E4 nM): -0.059
- SRB (BF4T, 1.00E4 nM): 0.004
- tPA (BF4T, 1.00E4 nM): -0.022
- uPA (BF4T, 1.00E4 nM): -0.009
- CCL2/MCP-1 (BF4T, 1.11E3 nM): -0.045
- CCL26/Eotaxin-3 (BF4T, 1.11E3 nM): -0.209
- CD54/ICAM-1 (BF4T, 1.11E3 nM): -0.086
- CD90 (BF4T, 1.11E3 nM): -0.00131
- CD106/VCAM-1 (BF4T, 1.11E3 nM): -0.021
- CXCL8/IL-8 (BF4T, 1.11E3 nM): -0.056
- IL-1alpha (BF4T, 1.11E3 nM): -0.038
- Keratin 8/18 (BF4T, 1.11E3 nM): 0.020
- MMP-1 (BF4T, 1.11E3 nM): -0.016
- MMP-3 (BF4T, 1.11E3 nM): -0.0065
- MMP-9 (BF4T, 1.11E3 nM): -0.011
- PAI-I (BF4T, 1.11E3 nM): -0.00269
- SRB (BF4T, 1.11E3 nM): 0.011
- tPA (BF4T, 1.11E3 nM): 0.007
- uPA (BF4T, 1.11E3 nM): -0.016
- CCL2/MCP-1 (BF4T, 1.23E2 nM): -0.067
- CCL26/Eotaxin-3 (BF4T, 1.23E2 nM): -0.191
- CD54/ICAM-1 (BF4T, 1.23E2 nM): -0.058
- CD90 (BF4T, 1.23E2 nM): -0.00126
- CD106/VCAM-1 (BF4T, 1.23E2 nM): -0.012
- CXCL8/IL-8 (BF4T, 1.23E2 nM): -0.021
- IL-1alpha (BF4T, 1.23E2 nM): -0.020
- Keratin 8/18 (BF4T, 1.23E2 nM): -0.022
- MMP-1 (BF4T, 1.23E2 nM): 0.00135
- MMP-3 (BF4T, 1.23E2 nM): -0.007
- MMP-9 (BF4T, 1.23E2 nM): -0.047
- PAI-I (BF4T, 1.23E2 nM): -0.013
- SRB (BF4T, 1.23E2 nM): 0.00469
- tPA (BF4T, 1.23E2 nM): 0.032
- uPA (BF4T, 1.23E2 nM): 0.00319
